Test results reported in patent US20250340561A1, “QUINAZOLINE COMPOUND FOR INDUCING DEGRADATION OF G12D MUTANT KRAS PROTEIN” (Astellas Pharma Inc., priority 2021, published 2025).

Biological target: T1, KRAS G12D (Homo sapiens, UniProt P01116, G12D)
T1 construct: host or cells: AsPC-1 human pancreatic cancer cells
Assay: Test Example 1-2: KRAS degradation action in AsPC-1, Cell ELISA
Assay type: cell-based
Settings: AsPC-1 cells, overnight treatment, corrected with β-actin, 0% = 10 μM Example No. 26 (Example No. 8 for Example Nos. 74 and 75)
Procedure: Test Example 1-2: Evaluation of KRAS Degradation Action on Human G12D Mutant KRAS-Positive Pancreatic Cancer Line AsPC-1
The KRAS degradation action of test compounds was evaluated by measuring the expression levels of KRAS G12D by Cell ELISA.
[…] As for the cell culture conditions, a RPMI 1640 medium containing 10% fetal bovine serum was used in the presence of 5% CO2 at 37° C. The next day, the test compounds (10 points having final concentrations in the range of 10 μM to 0.3 nM), the compound of Example No. 26 (Example No. 8 for Example Nos. 74 and 75) of a final concentration of 10 μM as a positive control and DMSO, which was the solvent for the test compounds, as a negative control were diluted 500-fold with a fresh medium and were added at 20 μL per well. The cells were cultured overnight.
The next day, the culture supernatant was removed, and 4% paraformaldehyde phosphate buffer (from FUJIFILM Wako Pure Chemical Corporation) was added at 20 μL per well. The plate was allowed to stand for 30 minutes at room temperature to thus immobilize the cells. Then, the supernatant was removed, and 0.1% Triton X-100 (from Amersham Biosciences)-containing PBS was added at 20 μL per well. After allowing to stand for 10 minutes at room temperature, the supernatant was removed. PBS was added at 25 μL per well, and the supernatant was removed to thus wash each well. The washing was performed twice in total. Next, the supernatant was removed, and 0.5% sodium dodecyl sulfate (SDS; from Invitrogen)-containing PBS was added at 20 μL per well. After allowing to stand at room temperature for 10 minutes, the supernatant was removed by centrifugation (using a centrifugal dehydrator machine, the supernatant was removed by the same method hereinafter). PBS was added at 25 μL per well, and the supernatant was removed to thus wash each well. The washing was performed twice in total. The supernatant was removed by centrifugation, and a blocking solution (Intercept Blocking Buffer) was added at 20 μL per well. After allowing to stand for 30 minutes at room temperature, the supernatant was removed by centrifugation, and a solution obtained by diluting an anti-Ras (G12D Mutant Specific) antibody and an anti-3-actin antibody 1,000-fold with a blocking solution was added at 20 μL per well as a primary antibody. The plate was allowed to stand overnight at 4° C.
The next day, the plate was centrifuged to remove the supernatant. PBS was added at […], and the supernatant was removed to thus wash each well. The washing was performed twice in total. The supernatant was removed by centrifugation, and a solution obtained by diluting Donkey anti-Mouse IgG H&L (TRDye 680RD) (from Li—COR Biosciences) and Goat anti-Rabbit IgG H&L (IRDye 800CW) (from Li—COR Biosciences) 1,000-fold with a blocking solution was added at 20 μL per well as a secondary antibody. After allowing to stand for 1 hour at room temperature, the supernatant was removed. PBS was added at 25 μL per well, and the supernatant was removed to thus wash each well. The washing was performed twice in total. After removing the supernatant by centrifuging the plate, the plate was dried as it was with air at room temperature for 2 hours or more, and the 700-nm and 800-nm fluorescent signals were measured with Aerius (from LI-COR Biosciences).
With the signaling value at the time of addition of DMSO corrected with the signaling value of β-actin taken as 100% and with the signaling value at the time of addition of 10 μM of the compound of Example No. 26 taken as 0%, the 50% degradation values (DC50) of the amounts of KRAS were calculated by Sigmoid-Emax model nonlinear regression analysis. The molecular weights of the test compounds were calculated as the molecular weights of the trihydrochloride for Example No. 30, the tetrahydrochloride for Example No. 46 and the free forms forming no salt for the remaining Example Nos. The results for some test compounds of the formula (I) are shown in Table 2.

T1 sequence (P01116 1-188 isoform P01116-2 G12D): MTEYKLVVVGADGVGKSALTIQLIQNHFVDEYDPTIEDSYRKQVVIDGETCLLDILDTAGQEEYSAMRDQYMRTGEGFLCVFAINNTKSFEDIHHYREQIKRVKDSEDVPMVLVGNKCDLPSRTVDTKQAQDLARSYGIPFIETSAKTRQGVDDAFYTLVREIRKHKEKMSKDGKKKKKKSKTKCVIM

Question: With `Cc1ncsc1-c1ccc([C@H](CO)NC(=O)[C@@H]2C[C@@H](O)CN2C(=O)[C@H](C(C)C)n2cc(-c3ccc(COc4c(-c5c(C)c(F)cc6[nH]ncc56)c(C5CC5)cc5c(N6C[C@@H]7C[C@H]6CN7)nc(OC[C@H]6CCOC6)nc45)cc3)nn2)cc1` [Example 51] as the compound, how does the DC50 read?
Answer: The DC50 was 11 nM.

Question: For `CO[C@@H](C)COc1nc(N2C[C@@H]3C[C@H]2CN3)c2cc(C3CC3)c(-c3c(C)c(F)cc4[nH]ncc34)c(OCc3ccc(-c4cn([C@H](C(=O)N5C[C@H](O)C[C@H]5C(=O)N[C@@H](CO)c5ccc(-c6ocnc6C)cc5)C(C)C)nn4)cc3)c2n1` [Example 72], which DC50 is on record?
Answer: The DC50 was 16 nM.

Question: How did the DC50 turn out when `Cc1ncsc1-c1ccc([C@H](CO)NC(=O)[C@@H]2C[C@@H](O)CN2C(=O)[C@H](C(C)C)n2cc(-c3ccc(COc4c(-c5c(C)c(F)cc6[nH]ncc56)c(C5CC5)cc5c(N6C[C@@H]7C[C@H]6CN7)nc(O[C@H]6CCN(CCO)C6)nc45)cc3)nn2)cc1` [Example 31] was run?
Answer: Its DC50 is 138 nM.

Question: `CO[C@H](C)COc1nc(N2C[C@@H]3C[C@H]2CN3)c2cc(C3CC3)c(-c3c(C)c(F)cc4[nH]ncc34)c(OCc3ccc(-c4cn([C@H](C(=O)N5C[C@H](O)C[C@H]5C(=O)N[C@@H](CO)c5ccc(-c6scnc6C)cc5)C(C)C)nn4)cc3)c2n1` [Example 47] was tested. Which DC50 did it give?
Answer: The DC50 was 13 nM.

Question: For `Cc1ncsc1-c1ccc([C@H](CO)NC(=O)[C@@H]2C[C@@H](O)CN2C(=O)[C@H](C(C)C)n2cc(-c3ccc(COc4c(-c5c(C)c(F)cc6[nH]ncc56)c(C5CC5)cc5c(N6C[C@@H]7C[C@H]6CN7)nc(O[C@@H]6CCN(CC(F)F)C6)nc45)cc3)nn2)cc1` [Example 34], which DC50 is on record?
Answer: The DC50 was 24 nM.

Question: With `Cc1ncsc1-c1ccc([C@H](CO)NC(=O)[C@@H]2C[C@@H](O)CN2C(=O)[C@H](C2CC2)n2cc(-c3ccc(COc4c(-c5c(C)c(F)cc6[nH]ncc56)c(C5CC5)cc5c(N6C[C@@H]7C[C@H]6CN7)nc(OC6CCOCC6)nc45)cc3)nn2)cc1` [Example 73] as the compound, how does the DC50 read?
Answer: Its DC50 is 134 nM.

Question: `Cc1ncsc1-c1ccc([C@H](CO)NC(=O)[C@@H]2C[C@@H](O)CN2C(=O)[C@H](C(C)C)n2cc(-c3ccc(COc4c(-c5c(C)c(F)cc6[nH]ncc56)c(C5CC5)cc5c(N6C[C@@H]7C[C@H]6CN7)nc(OC[C@@H]6CCOC6)nc45)cc3)nn2)cc1` [Example 50] was tested. Which DC50 did it give?
Answer: Its DC50 is 11 nM.

Question: With `Cc1c(F)cc2[nH]ncc2c1-c1c(C2CC2)cc2c(N3C[C@@H]4C[C@H]3CN4)nc(OC3CCOCC3)nc2c1OCc1ccc(-c2cn([C@H](C(=O)N3C[C@H](O)C[C@H]3C(=O)N[C@@H](CO)c3cccc(F)c3)C(C)C)nn2)cc1` [Example 63] as the compound, how does the DC50 read?
Answer: Its DC50 is 70 nM.

Question: How did the DC50 turn out when `Cc1ncsc1-c1ccc([C@H](CO)NC(=O)[C@@H]2C[C@@H](O)CN2C(=O)[C@H](C(C)C)n2cc(-c3ccc(COc4c(-c5c(C)c(F)cc6[nH]ncc56)c(C5CC5)cc5c(N6C[C@@H]7C[C@H]6CN7)nc(O[C@H]6CCN(CC(F)F)C6)nc45)cc3)nn2)cc1` [Example 33] was run?
Answer: The DC50 was 30 nM.

Question: For `COCCN1CC[C@H](Oc2nc(N3C[C@@H]4C[C@H]3CN4)c3cc(C4CC4)c(-c4c(C)c(F)cc5[nH]ncc45)c(OCc4ccc(-c5cn([C@H](C(=O)N6C[C@H](O)C[C@H]6C(=O)N[C@@H](CO)c6ccc(-c7scnc7C)cc6)C(C)C)nn5)cc4)c3n2)C1` [Example 32], which DC50 is on record?
Answer: Its DC50 is 139 nM.

Question: For `Cc1ncsc1-c1ccc([C@H](CO)NC(=O)[C@@H]2C[C@@H](O)CN2C(=O)[C@H](C(C)C)n2cc(-c3ccc(COc4c(-c5c(C)c(F)cc6[nH]ncc56)c(C5CC5)cc5c(N6C[C@@H]7C[C@H]6CN7)nc(O[C@H](C)[C@@H](C)O)nc45)cc3)nn2)cc1` (atropisomer, axis not shown) [Example 37], which DC50 is on record?
Answer: Its DC50 is 25 nM.

Question: Which DC50 does the source give for `Cc1ncsc1-c1ccc([C@H](CO)NC(=O)[C@@H]2C[C@@H](O)CN2C(=O)[C@H](C(C)C)n2cc(-c3ccc(COc4c(-c5c(C)c(F)cc6[nH]ncc56)c(C5CC5)cc5c(N6C[C@@H]7C[C@H]6CN7)nc(OC[C@@H]6CCCN6C)nc45)cc3)nn2)cc1` [Example 57] here?
Answer: Its DC50 is 134 nM.

Question: How did the DC50 turn out when `CCn1nccc1-c1ccc([C@H](CO)NC(=O)[C@@H]2C[C@@H](O)CN2C(=O)[C@H](C(C)C)n2cc(-c3ccc(COc4c(-c5c(C)c(F)cc6[nH]ncc56)c(C5CC5)cc5c(N6C[C@@H]7C[C@H]6CN7)nc(OC[C@H](C)OC)nc45)cc3)nn2)cc1` [Example 70] was run?
Answer: Its DC50 is 14 nM.

Question: Which DC50 does the source give for `Cc1ncsc1-c1ccc([C@H](CO)NC(=O)[C@@H]2C[C@@H](O)CN2C(=O)[C@H](C(C)C)n2cc(-c3ccc(COc4c(-c5c(C)c(F)cc6[nH]ncc56)c(C5CC5)cc5c(N6C[C@@H]7C[C@H]6CN7)nc(NCCO)nc45)cc3)nn2)cc1` [Example 66] here?
Answer: The DC50 was 250 nM.

Question: How did the DC50 turn out when `Cc1ncsc1-c1ccc([C@H](CO)NC(=O)[C@@H]2C[C@@H](O)CN2C(=O)[C@H](C(C)C)n2cc(-c3ccc(COc4c(-c5c(C)c(F)cc6[nH]ncc56)c(C5CC5)cc5c(N6C[C@@H]7C[C@H]6CN7)nc(OCC6(CO)CC6)nc45)cc3)nn2)cc1` [Example 61] was run?
Answer: The DC50 was 21 nM.

Question: `COC[C@H](C)Oc1nc(N2C[C@@H]3C[C@H]2CN3)c2cc(C3CC3)c(-c3c(C)c(F)cc4[nH]ncc34)c(OCc3ccc(-c4cn([C@H](C(=O)N5C[C@H](O)C[C@H]5C(=O)N[C@@H](CO)c5ccc(-c6scnc6C)cc5)C(C)C)nn4)cc3)c2n1` [Example 54] was tested. Which DC50 did it give?
Answer: Its DC50 is 8 nM.

Question: `CO[C@H](C)[C@@H](C)Oc1nc(N2C[C@@H]3C[C@H]2CN3)c2cc(C3CC3)c(-c3c(C)c(F)cc4[nH]ncc34)c(OCc3ccc(-c4cn([C@H](C(=O)N5C[C@H](O)C[C@H]5C(=O)N[C@@H](CO)c5ccc(-c6scnc6C)cc5)C(C)C)nn4)cc3)c2n1` [Example 39] was tested. Which DC50 did it give?
Answer: The DC50 was 6 nM.

Question: Which DC50 does the source give for `Cc1ncsc1-c1ccc([C@H](CO)NC(=O)[C@@H]2C[C@@H](O)CN2C(=O)[C@H](C(C)C)n2cc(-c3ccc(COc4c(-c5c(C)c(F)cc6[nH]ncc56)c(C5CC5)cc5c(N6C[C@@H]7C[C@H]6CN7)nc(OC[C@H]6CCCN6C)nc45)cc3)nn2)cc1` [Example 60] here?
Answer: Its DC50 is 102 nM.

Question: With `Cc1ncsc1-c1ccc([C@H](CO)NC(=O)[C@@H]2C[C@@H](O)CN2C(=O)[C@H](C(C)C)n2cc(-c3ccc(COc4c(-c5c(C)c(F)cc6[nH]ncc56)c(C5CC5)cc5c(N6C[C@@H]7C[C@H]6CN7)nc(O[C@H](C)CN(C)C)nc45)cc3)nn2)cc1` [Example 46] as the compound, how does the DC50 read?
Answer: Its DC50 is 37 nM.

Question: With `Cc1ncsc1-c1ccc([C@@H](CO)NC(=O)[C@@H]2C[C@@H](O)CN2C(=O)[C@H](C(C)C)n2cc(-c3ccc(COc4c(-c5c(C)c(F)cc6[nH]ncc56)c(C5CC5)cc5c(N6C[C@@H]7C[C@H]6CN7)nc(OC6CCOCC6)nc45)cc3)nn2)cc1` [Example 68] as the compound, how does the DC50 read?
Answer: Its DC50 is 1390 nM.

Question: With `Cc1c(F)cc2[nH]ncc2c1-c1c(C2CC2)cc2c(N3C[C@@H]4C[C@H]3CN4)nc(OC3CCOCC3)nc2c1OCc1ccc(-c2cn([C@H](C(=O)N3C[C@H](O)C[C@H]3C(=O)N[C@@H](CO)c3cccc(S(C)(=O)=O)c3)C(C)C)nn2)cc1` [Example 67] as the compound, how does the DC50 read?
Answer: The DC50 was 840 nM.

Question: For `Cc1ncsc1-c1ccc([C@H](CO)NC(=O)[C@@H]2C[C@@H](O)CN2C(=O)[C@H](C(C)C)n2cc(-c3ccc(COc4c(-c5c(C)c(F)cc6[nH]ncc56)c(C5CC5)cc5c(N6C[C@@H]7C[C@H]6CN7)nc(OCC6(CO)CCOCC6)nc45)cc3)nn2)cc1` (atropisomer, axis not shown) [Example 36], which DC50 is on record?
Answer: Its DC50 is 17 nM.

Question: Which DC50 does the source give for `Cc1ncsc1-c1ccc([C@H](CO)NC(=O)[C@@H]2C[C@@H](O)CN2C(=O)[C@H](C(C)C)n2cc(-c3ccc(COc4c(-c5c(C)c(F)cc6[nH]ncc56)c(C5CC5)cc5c(N6C[C@@H]7C[C@H]6CN7)nc(O[C@H](C)CN6CCOCC6)nc45)cc3)nn2)cc1` [Example 45] here?
Answer: Its DC50 is 15 nM.

Question: `CO[C@@H](C)COc1nc(N2C[C@@H]3C[C@H]2CN3)c2cc(C3CC3)c(-c3c(C)c(F)cc4[nH]ncc34)c(OCc3ccc(-c4cn([C@H](C(=O)N5C[C@H](O)C[C@H]5C(=O)N[C@@H](CO)c5ccc(-n6ccnc6C)cc5)C(C)C)nn4)cc3)c2n1` [Example 71] was tested. Which DC50 did it give?
Answer: Its DC50 is 35 nM.
